Laboratory results from patent publication US20230078764A1 (Yumanity Therapeutics, Inc., priority 2019, published 2023).

Key:
human SCD1 = biological target: T1, human SCD1 (Homo sapiens, UniProt O00767); assay: Growth inhibition of yeast strain expressing human SCD1 as sole desaturase (OLE1 deleted), OD600 readout; format: cell-based; conditions: yeast strain expressing human SCD1 as sole desaturase; growth (OD600) after 40 h at 30° C.; read-out: SCD1 IC50
T1 construct: expressed in transfected cells; host or cells: yeast strain with OLE1 deleted, plasmid-borne human SCD1 (selected in SD-Ura)
T1 sequence (O00767 1-359): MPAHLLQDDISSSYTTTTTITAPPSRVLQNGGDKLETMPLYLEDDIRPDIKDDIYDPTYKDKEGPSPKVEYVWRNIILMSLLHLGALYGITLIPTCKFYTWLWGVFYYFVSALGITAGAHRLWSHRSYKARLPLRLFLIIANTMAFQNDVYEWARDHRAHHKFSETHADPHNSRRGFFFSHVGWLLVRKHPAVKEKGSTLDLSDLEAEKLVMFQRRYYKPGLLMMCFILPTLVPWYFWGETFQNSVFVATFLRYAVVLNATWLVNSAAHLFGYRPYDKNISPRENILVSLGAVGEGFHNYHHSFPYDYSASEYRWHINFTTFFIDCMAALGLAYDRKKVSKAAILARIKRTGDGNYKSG

human SCD5 = biological target: T2, human SCD5 (Homo sapiens, UniProt Q86SK9); assay: Growth inhibition of yeast strain expressing human SCD5 as sole desaturase (OLE1 deleted), OD600 readout; format: cell-based; conditions: yeast strain expressing human SCD5 as sole desaturase; growth (OD600) after 40 h at 30° C.; read-out: SCD5 IC50
T2 construct: expressed in transfected cells; host or cells: yeast strain with OLE1 deleted, plasmid-borne human SCD5 (selected in SD-Ura)
T2 sequence (Q86SK9 1-330): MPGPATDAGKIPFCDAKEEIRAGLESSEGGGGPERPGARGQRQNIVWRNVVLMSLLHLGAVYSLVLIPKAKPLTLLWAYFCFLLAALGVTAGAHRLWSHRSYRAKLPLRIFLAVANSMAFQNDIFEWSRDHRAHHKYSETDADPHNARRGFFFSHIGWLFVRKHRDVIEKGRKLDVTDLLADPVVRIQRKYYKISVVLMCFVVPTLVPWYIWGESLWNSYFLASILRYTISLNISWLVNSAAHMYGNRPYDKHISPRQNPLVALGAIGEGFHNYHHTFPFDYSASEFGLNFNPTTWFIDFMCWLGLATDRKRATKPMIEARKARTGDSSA

Row | Compound | IC50 (human SCD1) | IC50 (human SCD5)
1 | O=C(Nc1ncc(Cc2cccc(F)c2)s1)C1=NN(CCF)C(=O)CC1 [Compound 386] | > 45 µM | > 45 µM
2 | COc1cc(Cc2cccc(Cl)c2)cnc1NC(=O)C1=NN(C)C(=O)CC1 [Compound 387] | > 45 µM | > 45 µM
3 | CN1N=C(C(=O)Nc2cnc(Cc3cccc(F)c3)s2)CCC1=O [Compound 388] | 17.6 µM | > 45 µM
4 | Cn1nc(C(=O)Nc2ncc(Cc3cccc(C#N)c3)s2)ccc1=O [Compound 389] | > 45 µM | > 45 µM
5 | CN1N=C(C(=O)Nc2ncc(Cc3ccc4ccccc4n3)s2)CCC1=O [Compound 390] | > 45 µM | > 45 µM
6 | CS(=O)(=O)c1cccc(C(=O)Nc2ccc(Cc3cccc(F)c3)cn2)c1 [Compound 391] | 1.24 µM | > 45 µM
7 | CN1N=C(C(=O)Nc2ccc(Cc3ccc(C4CC4)nc3)cn2)CCC1=O [Compound 392] | > 45 µM | > 45 µM
8 | O=C(Nc1ccc(Cc2cccc(Cl)c2)cn1)N1CCC2(CC1)COC2 [Compound 393] | > 45 µM | > 45 µM
9 | CC(=O)Nc1ccc(/C=C/c2cccc(Cl)c2)nn1 [Compound 394] | > 45 µM | > 45 µM
10 | CC(C)Cc1ccc(NC(=O)c2ccc(=O)n(C)n2)nn1 [Compound 395] | > 45 µM | > 45 µM
11 | CN1N=C(C(=O)Nc2ccc(COC3(C)CC3)cn2)CCC1=O [Compound 396] | > 45 µM | > 45 µM
12 | CN1N=C(CNc2ccc(Cc3cccc(F)c3)cn2)CCC1=O [Compound 397] | > 45 µM | > 45 µM
13 | CN1N=C(C(=O)Nc2ncc(Cc3cccnc3)s2)CCC1=O [Compound 398] | > 45 µM | > 45 µM
14 | CN1N=C(C(=O)Nc2ncc(Cc3cccc(F)c3)o2)CCC1=O [Compound 399] | > 45 µM | > 45 µM
15 | CN1C(=O)CCC1C(=O)Nc1ncc(Cc2cccc(F)c2)s1 (stereo not drawn) [Compound 400] | > 45 µM | > 45 µM
16 | CN1N=C(C(=O)Nc2ccc(Cc3cccc(F)c3)nc2)CCC1=O [Compound 401] | > 45 µM | > 45 µM
17 | Cc1cnc(Cc2ccc(NC(=O)C3=NN(C)C(=O)CC3)nc2)s1 [Compound 402] | > 45 µM | > 45 µM
18 | CC(=O)C1CN(C(=O)Nc2ccc(Cc3cccc(Cl)c3)cn2)C1 [Compound 403] | > 45 µM | > 45 µM
19 | COc1ccc(C(=O)Nc2ncc(Cc3cccc(F)c3)s2)nn1 [Compound 404] | > 45 µM | > 45 µM
20 | CN1N=C(C(=O)Nc2cnn(Cc3cccc(Cl)c3)c2)CCC1=O [Compound 405] | > 45 µM | > 45 µM
21 | CN1N=C(C(=O)Nc2nc(Cc3cccc(F)c3)cs2)CCC1=O [Compound 406] | > 45 µM | > 45 µM

Row | Compound | IC50 (human SCD1) | IC50 (human SCD5)
22 | CN1N=C(C(=O)Nc2nnc(Cc3cccc(Cl)c3)[nH]2)CCC1=O [Compound 407] | > 45 µM | > 45 µM
23 | CN1N=C(C(=O)Nc2nc(Cc3cccc(F)c3)ns2)CCC1=O [Compound 408] | > 45 µM | > 45 µM
24 | CN1N=C(C(=O)Nc2nnc(Cc3cccc(Cl)c3)o2)CCC1=O [Compound 409] | > 45 µM | > 45 µM
25 | CCn1cc(C(=O)Nc2ccc(Cc3cccc(F)c3)nn2)ccc1=O [Compound 410] | > 45 µM | > 45 µM
26 | Cn1nc(C(=O)NCc2ccc(Cc3cccc(F)c3)cn2)ccc1=O [Compound 411] | > 45 µM | > 45 µM
27 | CN1N=C(C(=O)Nc2ccc(CN3CCC(C)(C)CC3)cn2)CCC1=O [Compound 412] | > 45 µM | > 45 µM
28 | CN1N=C(C(=O)Nc2ncc(C(=O)c3cccc(F)c3)s2)CCC1=O [Compound 413] | > 45 µM | > 45 µM
29 | CCN1N=C(C(=O)Nc2ncc(Cc3cccc(F)c3)s2)CCC1=O [Compound 414] | 25 µM | > 45 µM
30 | O=C(Nc1ccc(Cc2cccc(Cl)c2)cn1)c1ccc2nccn2n1 [Compound 415] | > 45 µM | > 45 µM
31 | CN1N=C(C(=O)Nc2ncc(Oc3ccccc3Cl)s2)CCC1=O [Compound 416] | > 45 µM | > 45 µM
32 | O=C(Nc1ccc(Cc2cccc(F)c2)cn1)c1ccc(F)c(Cl)n1 [Compound 417] | > 45 µM | > 45 µM
33 | CN1N=C(C(=O)Nc2ncc(C(C)(O)c3cccc(F)c3)s2)CCC1=O (stereo not drawn) [Compound 419] | > 45 µM | > 45 µM
34 | O=C(Nc1ncc(Cc2cccc(F)c2)s1)C1=NN(CCO)C(=O)CC1 [Compound 420] | > 45 µM | > 45 µM
35 | O=C(Nc1ccc(Cc2cccc(F)c2)cn1)c1ccc(=O)n(C2CCC2)n1 [Compound 421] | > 45 µM | > 45 µM
36 | CN1N=C(C(=O)Nc2nc(Cc3ccc4ccccc4n3)cs2)CCC1=O [Compound 422] | > 45 µM | > 45 µM
37 | CS(=O)(=O)c1ccc(C(=O)Nc2ccc(Cc3cccc(F)c3)cn2)cc1 [Compound 423] | > 45 µM | > 45 µM
38 | COC(C)(c1cccc(F)c1)c1cnc(NC(=O)C2=NN(C)C(=O)CC2)s1 (stereo not drawn) [Compound 424] | > 45 µM | > 45 µM
39 | Cn1nc(C(=O)Nc2cncc(Cc3cccc(Cl)c3)c2)ccc1=O [Compound 426] | > 45 µM | > 45 µM
40 | Cn1cc(C(=O)Nc2ccc(OCc3cc(F)cc(C#N)c3)cn2)ccc1=O [Compound 427] | > 45 µM | > 45 µM
41 | COC(=O)c1ccc(C(=O)Nc2ccc(COc3ccc(F)c(Cl)c3)cn2)nc1 [Compound 428] | > 45 µM | > 45 µM
42 | O=C(Nc1ccc(Cc2cccc(Cl)c2)cn1)c1ccn2cnnc2c1 [Compound 429] | > 45 µM | > 45 µM

Row | Compound | IC50 (human SCD1) | IC50 (human SCD5)
43 | Cn1nc(C(=O)Nc2nc(C(N)=O)c(Cc3cccc(F)c3)s2)ccc1=O [Compound 430] | > 45 µM | > 45 µM
44 | Cn1cc(C(=O)Nc2nnc(Cc3cc(F)cc(Cl)c3)s2)ccc1=O [Compound 431] | 1.07 µM | > 45 µM
45 | Cn1nc(C(=O)N2CCC(Oc3cccc(Cl)c3)CC2)ccc1=O [Compound 432] | > 45 µM | > 45 µM
46 | CN1N=C(C(=O)Oc2ccc(NCc3cccc(F)c3)nc2)CCC1=O [Compound 433] | > 45 µM | > 45 µM
47 | Cn1nc(NC(=O)N[C@H]2CC[C@H](Cc3cccc(Cl)c3)CC2)ccc1=O [Compound 434] | > 45 µM | > 45 µM
48 | Cc1ccc(Cc2ccc(NC(=O)C3=NN(C)C(=O)CC3)nc2)cn1 [Compound 435] | > 45 µM | > 45 µM
49 | CN1N=C(C(=O)Nc2ccc(Cc3cccc(CO)c3)cn2)CCC1=O [Compound 436] | 6.24 µM | > 45 µM
50 | Cc1cncc(Cc2ccc(NC(=O)C3=NN(C)C(=O)CC3)nc2)c1 [Compound 437] | > 45 µM | > 45 µM
51 | CO[C@H]1C[C@@H](C(=O)Nc2ccc(Cc3cccc(F)c3)cn2)N(C)C1 [Compound 438] | > 45 µM | > 45 µM
52 | CN1N=C(C(=O)Nc2ccc(NCc3cc(F)cc(C#N)c3)nc2)CCC1=O [Compound 439] | > 45 µM | > 45 µM
53 | CN1N=C(C(=O)Nc2ccc(Cc3cccc(C=O)c3)cn2)CCC1=O [Compound 440] | > 45 µM | > 45 µM
54 | Cn1nc(C(=O)Nc2ccc(OCc3cc(F)cc(C#N)c3)cn2)ccc1=O [Compound 441] | > 45 µM | > 45 µM
55 | CN1N=C(C(=O)Nc2ccc(Cc3cncc(F)c3)cn2)CCC1=O [Compound 442] | > 45 µM | > 45 µM
56 | CN1N=C(C(=O)Nc2cnc(Cc3cccc(Cl)c3)nc2)CCC1=O [Compound 443] | > 45 µM | > 45 µM
57 | C=CCCc1ccc(NC(=O)C2=NN(C)C(=O)CC2)nc1 [Compound 444] | > 45 µM | > 45 µM
58 | CN1N=C(C(=O)Nc2ccc(Cc3cccc(C(F)(F)F)n3)cn2)CCC1=O [Compound 445] | > 45 µM | > 45 µM
59 | CO[C@H]1C[C@@H](C(=O)Nc2ccc(Cc3cccc(F)c3)cn2)N(C(=O)OC(C)(C)C)C1 [Compound 446] | > 45 µM | > 45 µM
60 | CO[C@@H]1CN[C@H](C(=O)Nc2ccc(Cc3cccc(F)c3)cn2)C1 [Compound 447] | > 45 µM | > 45 µM
61 | Cc1nc(C(=O)Nc2ccc(Cc3cccc(F)c3)cn2)ccc1F [Compound 448] | > 45 µM | > 45 µM
62 | Cc1ccc(Cc2ccc(NC(=O)c3ccc(=O)n(C)c3)nc2)cn1 [Compound 449] | > 45 µM | > 45 µM
63 | Cc1cncc(Cc2ccc(NC(=O)c3ccc(=O)n(C)c3)nc2)c1 [Compound 450] | > 45 µM | > 45 µM
